Results on 47 molecules are retold here after patent EP0694535A1, “Non-peptidyl tachykinin receptor antagonists” (ELI LILLY AND COMPANY, priority 1994, dated 1996).

The structures appear in SMILES notation. Counter-ions that a name gives are not always drawn.

T1 sequence (P25103 whole entry): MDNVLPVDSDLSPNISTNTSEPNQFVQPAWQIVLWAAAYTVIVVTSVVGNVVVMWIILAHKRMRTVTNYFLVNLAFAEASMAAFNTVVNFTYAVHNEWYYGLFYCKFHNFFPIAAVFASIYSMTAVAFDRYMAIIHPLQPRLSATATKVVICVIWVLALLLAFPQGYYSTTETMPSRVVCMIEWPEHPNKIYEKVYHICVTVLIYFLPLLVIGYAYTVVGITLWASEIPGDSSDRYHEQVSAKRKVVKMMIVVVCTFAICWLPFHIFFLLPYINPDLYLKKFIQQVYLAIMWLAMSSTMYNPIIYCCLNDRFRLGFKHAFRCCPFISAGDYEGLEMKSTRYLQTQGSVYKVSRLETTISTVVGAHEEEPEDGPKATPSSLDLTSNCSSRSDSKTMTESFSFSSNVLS

One test addresses T1, NK-1 receptor (Homo sapiens, UniProt P25103).
T1 construct: an aliquot of IM9 cells; endogenous in cells; host or cells: IM9 cells (whole cells)
Description: NK-1 Receptor Binding Assay (competition with labeled substance P on IM9 cells). The settings on record: @ 20μM, inhibition of substance P binding to the NK-1 receptor, read-out: Percent Inhibition. On the procedure:
Radioreceptor binding assays were performed using a derivative of a previously published protocol. D.G. Payan, et al., Journal of Immunology, 133:3260-3265 (1984). In this assay an aliquot of IM9 cells (1 x 10⁶ cells/tube in […] medium supplemented with 10% fetal calf serum) was incubated with 20 pM […] substance P in the presence of increasing competitor concentrations for 45 minutes at 4°C.
The IM9 cell line is a well-characterized cell line which is readily available to the public. See. e.g., Annals of the New York Academy of Science, 190: 221-234 (1972); Nature (London), 251:443-444 (1974); Proceedings of the National Academy of Sciences (USA), 71:84-88 (1974). These cells were routinely cultured in RPMI 1640 supplemented with 50 µg/ml gentamicin sulfate and 10% fetal calf serum.
The reaction was terminated by filtration through a glass fiber filter harvesting system using filters previously soaked for 20 minutes in 0.1% polyethylenimine. Specific binding of labeled substance P was determined in the presence of 20 nM unlabeled ligand.
Column 1 provides the example number of the test antagonist compound. The next columns detail the substitution patterns of the test compound.
Take `O=[N+]([O-])c1cc(-c2nc3ccccc3n2-c2ccccc2)ccc1Cl` [Example 30, 1-phenyl-2-(3-nitro-4-chlorophenyl)-benzimidazole]: the inhibition (in general, the percentage by which the read-out fell short of the control) at 20 µM turned out to be 79%.

In the case of `Clc1ccc(-n2c(-c3ccccc3)nc3ccccc32)cc1` [Example 8, 1-(4-chlorophenyl)-2-phenylbenzimidazole], the inhibition at 20 µM worked out at 11%.

In the case of `c1ccc(-c2nc3ccccc3n2-c2ccccc2)cc1` [Example 1, 1,2-diphenylbenzimidazole], the inhibition at 20 µM came out at 25%.

`Clc1ccccc1-c1nc2ccccc2n1-c1ccccc1` [Example 22, 1-phenyl-2-(2-chlorophenyl)benzimidazole]: the inhibition at 20 µM was determined as 65%.

On to `c1ccc(-c2nc3ccccc3n2CCN2CCCCC2)cc1` [Example 28, 1-(piperidin-1-ylethyl)-2-phenylbenzimidazole dihydrochloride], for which the inhibition at 20 µM was 16%.

Take `c1ccc(-n2c(C3CCCCC3)nc3ccccc32)cc1` [Example 21, 1-phenyl-2-cyclohexylbenzimidazole]: the inhibition at 20 µM came out at 26%.

As to `Clc1ccc(-c2nc3ccccc3n2-c2ccccc2)cc1` [Example 5, 1-phenyl-2-(4-chlorophenyl)benzimidazole], the inhibition at 20 µM amounted to 38%.

As for `FC(F)(F)c1ccccc1-c1nc2ccccc2n1-c1ccccc1` [Example 36, 1-phenyl-2-(2-trifluoromethylphenyl)-benzimidazole], the inhibition at 20 µM was found to be 43%.

As to `COc1ccc(-c2nc3ccccc3n2-c2ccc(Cl)cc2)cc1` [Example 17, 1-(4-chlorophenyl)-2-(4-methoxyphenyl)benzimidazole], the inhibition at 20 µM worked out at 17%.

As for `Oc1ccc(-c2nc3ccccc3n2-c2ccccc2)cc1` [Example 29, 1-phenyl-2-(4-hydroxyphenyl)benzimidazole], the inhibition at 20 µM came to 67%.

On to `c1ccc(Cc2nc3ccccc3n2-c2ccccc2)cc1` [Example 3, 1-phenyl-2-phenylmethylbenzimidazole], for which the inhibition at 20 µM amounted to 30%.

Consider `Cc1ccc(-c2nc3ccccc3n2-c2ccccc2)cc1` [Example 18, 1-phenyl-2-(4-methylphenyl)benzimidazole], for which the inhibition at 20 µM came out at 37%.

Take `CCCCCc1nc2ccccc2n1-c1ccccc1` [Example 35, 1-phenyl-2-pentylbenzimidazole hydrochloride]: the inhibition at 20 µM stood at 51%.

Turning to `Cc1ccccc1-c1nc2ccccc2n1-c1ccccc1` [Example 23, 1-phenyl-2-(2-methylphenyl)benzimidazole], the inhibition at 20 µM was 51%.

For the molecule `CN(C)CCn1c(-c2ccccc2)nc2ccccc21` [Example 26, 1-dimethylaminoethyl-2-phenylbenzimidazole dihydrochloride], the inhibition at 20 µM worked out at 0%.

As for `COc1ccc(-c2nc3ccccc3n2-c2ccccc2)cc1` [Example 2, 1-phenyl-2-(4-methoxyphenyl)benzimidazole], the inhibition at 20 µM turned out to be 38%.

In the case of `Clc1ccc(-c2nc3ccccc3n2-c2ccc(Cl)cc2)cc1` [Example 11, 1-(4-chlorophenyl)-2-(4-chlorophenyl)-benzimidazole], the inhibition at 20 µM amounted to 19%.

Regarding `FC(F)(F)c1cccc(-c2nc3ccccc3n2-c2ccccc2)c1` [Example 9, 1-phenyl-2-(3-trifluoromethylphenyl)-benzimidazole], the inhibition at 20 µM was found to be 15%.

The test is the same for the next values; noted with them: at 10μM, inhibition of substance P binding to the NK-1 receptor, read-out: Percent Inhibition.
On to `COc1ccc(Cn2c(-c3cccc(C)c3)nc3ccccc32)cc1` [Example 66, 1-(4-Methoxybenzyl)-2-(3-methylphenyl)benzimidazole], for which the inhibition at 10 µM worked out at 34%.

Consider `Cc1cccc(-c2nc3ccccc3n2Cc2ccc(Cl)cc2Cl)c1` [Example 63, 1-(2,4-Dichlorobenzyl)-2-(3-methylphenyl)benzimidazole], for which the inhibition at 10 µM was 36%.

Take `Cc1cccc(-c2nc3ccccc3n2Cc2cccc(O)c2)c1` [Example 67, 1-(3-hydroxybenzyl)-2-(3-methylphenyl)benzimidazole hydrobromide]: the inhibition at 10 µM worked out at 60%.

Consider `COc1cccc(Cn2c(-c3cccc(C)c3)nc3ccccc32)c1` [Example 65, 1-(3-Methoxybenzyl)-2-(3-methylphenyl)benzimidazole], for which the inhibition at 10 µM amounted to 58%.

The test is the same for the next values; noted with them: concentration which inhibits fifty percent of the binding of substance P, 20 pM labeled substance P, 45 minutes at 4°C.
With `COc1cc(-c2nc3ccc(OC(C)CN(C)C)cc3n2Cc2ccccc2)cc(OC)c1OC` (centres unmarked) [Example 78], the IC50 (in general, the concentration at which inhibition is half-maximal) was 0.151 µM.

`Clc1ccc(-c2nc3ccccc3n2-c2ccccc2)cc1Cl` [Example 27, 1-phenyl-2-(3,4-dichlorophenyl)benzimidazole]: the IC50 was determined as 6.61 µM.

Molecule `c1ccc(-n2c(-c3cccs3)nc3ccccc32)cc1` [Example 33, 1-phenyl-2-(thien-2-yl)benzimidazole] displayed an IC50 of 3.98 µM.

Molecule `COc1ccc2nc(-c3cc(OC)c(OC)c(OC)c3)n(Cc3ccccc3)c2c1` [Example 39, 1-phenylmethyl-2-(3,4,5-trimethoxyphenyl)-6-methoxybenzimidazole] had a concentration for half-maximal inhibition (IC50) of 0.427 µM. This IC50 lies about 9.3-fold lower than the previous one.

`O=[N+]([O-])c1ccc(-c2nc3ccccc3n2-c2ccccc2)cc1` [Example 7, 1-phenyl-2-(4-nitrophenyl)benzimidazole] had a half-maximal inhibitory concentration (IC50) of 9.12 µM. Compared with the last molecule, the IC50 is about 21-fold higher.

For `O=[N+]([O-])c1cccc(-c2nc3ccccc3n2-c2ccccc2)c1` [Example 10, 1-phenyl-2-(3-nitrophenyl)benzimidazole], the half-inhibitory concentration (IC50) was determined as 5 µM.

`COc1ccc2c(c1)nc(-c1cc(OC)c(OC)c(OC)c1)n2Cc1ccccc1` [Example 38, 1-phenylmethyl-2-(3,4,5-trimethoxyphenyl)-5-methoxybenzimidazole] had an IC50 of 1.05 µM.

In turn, `Cc1cccc(-c2nc3ccccc3n2-c2ccccc2)c1` [Example 19, 1-phenyl-2-(3-methylphenyl)benzimidazole] registered a concentration for half-maximal inhibition (IC50) of 1.1 µM.

Take `N#Cc1ccc(-c2nc3ccccc3n2-c2ccccc2)cc1` [Example 20, 1-phenyl-2-(4-cyanophenyl)benzimidazole]: the 50% inhibitory concentration (IC50) amounted to 3.47 µM.

As for `COc1cc(-c2nc3ccc(OCCCN(C)C)cc3n2Cc2ccccc2)cc(OC)c1OC` [Example 80, 1-benzyl-2-(3,4,5-trimethoxyphenyl)-6-[3-(N,N-dimethylamino)propoxy]benzimidazole], the half-inhibitory concentration (IC50) was found to be 0.123 µM.

`COc1cc(-c2nc3ccccc3n2-c2ccccc2)cc(OC)c1OC` [Example 16, 1-phenyl-2-(3,4,5-trimethoxyphenyl)-benzimidazole] had a half-maximal inhibitory concentration (IC50) of 0.64 µM. Compared with the last molecule, the IC50 is about 5.2-fold higher.

Consider `COc1cc(-c2nc3ccc(OCCN(C(C)C)C(C)C)cc3n2Cc2ccccc2)cc(OC)c1OC` [Example 81, 1-benzyl-2-(3,4,5-trimethoxyphenyl)-6-[2-(N,N-diisopropylamino)ethoxy]benzimidazole], for which the IC50 was 0.04 µM.

Turning to `N#Cc1cccc(-c2nc3ccccc3n2-c2ccccc2)c1` [Example 25, 1-phenyl-2-(3-cyanophenyl)benzimidazole], the IC50 is 3.27 µM. Against the preceding molecule, the IC50 is about 82-fold higher.

For the molecule `Clc1cccc(-c2nc3ccccc3n2-c2ccccc2)c1` [Example 4, 1-phenyl-2-(3-chlorophenyl)benzimidazole], the concentration for half-maximal inhibition (IC50) came to 7 µM. Compared with the last molecule, the IC50 is about 2.1-fold higher.

In the case of `COc1cc(OC)cc(-c2nc3ccccc3n2-c2ccccc2)c1` [Example 14, 1-phenyl-2-(3,5-dimethoxyphenyl)benzimidazole], the 50% inhibitory concentration (IC50) stood at 1.54 µM.

`COc1cc(-c2nc3ccc(OCCN(C)C)cc3n2Cc2ccccc2)cc(OC)c1OC` [Example 79, 1-benzyl-2-(3,4,5-trimethoxyphenyl)-6-[2-(N,N-dimethylamino)ethoxy]benzimidazole] showed an IC50 of 0.097 µM. This IC50 lies about 16-fold lower than the previous one.

In turn, `COc1cc(-c2nc3ccc(OCCN4CCN(C)CC4)cc3n2Cc2ccccc2)cc(OC)c1OC` [Example 83, 1-benzyl-2-(3,4,5-trimethoxyphenyl)-6-[2-(4-methyl-1-piperazinyl)ethoxy]benzimidazole] displayed a half-inhibitory concentration (IC50) of 0.098 µM.

In the case of `Oc1cccc(-c2nc3ccccc3n2-c2ccccc2)c1` [Example 34, 1-phenyl-2-(3-hydroxyphenyl)benzimidazole], the half-inhibitory concentration (IC50) stood at 12 µM. This IC50 is about 120-fold higher than that of the molecule before.

In turn, `COc1cc(-c2nc3ccc(O)cc3n2Cc2ccccc2)cc(OC)c1OC` [Example 69, 1-benzyl-2-(3,4,5-trimethoxyphenyl)-6-(hydroxy)-benzimidazole hydrochloride] had an IC50 of 1.13 µM. Compared with the last molecule, the IC50 is about 11-fold lower.

In the case of `FC(F)(F)c1ccc(-c2nc3ccccc3n2-c2ccccc2)cc1` [Example 12, 1-phenyl-2(4-trifluoromethylphenyl)-benzimidazole], the IC50 came out at 6.72 µM. This IC50 is about 5.9-fold higher than that of the molecule before.

Consider `COc1ccc(-c2nc3ccccc3n2-c2ccccc2)cc1OC` [Example 15, 1-phenyl-2-(3,4-dimethoxyphenyl)benzimidazole], for which the IC50 was 2.98 µM.

`COc1cccc(-c2nc3ccccc3n2-c2ccccc2)c1` [Example 6, 1-phenyl-2-(3-methoxyphenyl)benzimidazole] showed a 50% inhibitory concentration (IC50) of 3.29 µM.

In turn, `c1ccc(-n2c(-c3ccc4ccccc4c3)nc3ccccc32)cc1` [Example 13, 1-phenyl-2-(2-naphthyl)benzimidazole] gave a half-maximal inhibitory concentration (IC50) of 6.91 µM.

`COc1ccccc1-c1nc2ccccc2n1-c1ccccc1` [Example 24, 1-phenyl-2-(2-methoxyphenyl)benzimidazole]: the IC50 is 8.67 µM. The IC50 values of the last two molecules are within 1.5-fold of each other.

The molecule `CCCc1nc2ccccc2n1-c1ccccc1` [Example 32, 1-phenyl-2-propylbenzimidazole] displayed a concentration for half-maximal inhibition (IC50) of 10 µM.
